# According to patent US20060121082A1, “Method to enhance drug release from a drug-releasing material” (priority 2004, published 2006):
# Experiment: microbiological proof of ciprofloxacin bioactivity after manufacturing and during in vitro drug release tests
# Conditions: microbiologically proved
smiles,measurement,setting,value
"O=C(O)c1cn(C2CC2)c2cc(N3CCNCC3)c(F)cc2c1=O [Ciprofloxacin, ciprofloxacin]",bioactivity of ciprofloxacin after manufacturing and during the in vitro drug release tests,"Example 1, P(L/DL)LA composite",bioactive
same,bioactivity of ciprofloxacin after manufacturing and during the in vitro drug release tests,"Example 2, PLGA composite",bioactive
